Assay results from patent US20260102427A1, “COMPOSITIONS OF NANOPARTICLES FOR TREATMENT OF NEUROPATHIC PAIN” (NANOBIOTIX S.A., priority 2022, published 2026).

Columns and labels:
Type in all cases: in vivo, rat
[1] = tested on: oxaliplatin-induced mechanical allodynia; assay: Example 5: mechanical allodynia (von Frey PWT) in oxaliplatin chemotherapy-induced peripheral neuropathy model; conditions: Pregabalin 30 mg/kg p.o. each test day, tested 2 hr post dose
Procedure: The aim of this study was to investigate the effect of a single intraplantar treatment with Nanoparticles from Example 1 (NP1B) at the dose of 11 g/L, Nanoparticles from Example 2 (NP2B) at 53 g/L, Nanoparticles from Example 3 (NP20B) at 57 g/L, and Nanoparticles from Example 4 (NP20A) at 59 g/L, each in 20 μL of injection volume, on the mechanical allodynia (as assessed using von Frey) that occurs following systemic administration of oxaliplatin in the rat.
Experimental subjects: Seventy-two (72) adult male Sprague-Dawley rats were used for this study. […]
(§1) Static mechanical (tactile) allodynia evaluation: Measurement of paw withdrawal threshold (PWT) was achieved using calibrated (force; g) von-Frey monofilaments (Touch-Test Sensory Evaluator; Scientific Marketing Associates) applied to the plantar surface of the hind paw. Withdrawal threshold was determined by increasing and decreasing stimulus intensity and estimated using Dixon's up-down method. […]
Baseline readings for latency to withdrawal (sec) were assessed on three consecutive days (Day −3, Day −2 and Day −1). […]
Mechanical allodynia was subsequently re-assessed 2-3 times per week following injection, out to D26 post-oxaliplatin. […]

[2] = tested on: STZ-induced mechanical allodynia; assay: Example 7: mechanical allodynia (von Frey PWT) in streptozotocin diabetes-induced peripheral neuropathy model; conditions: Pregabalin 30 mg/kg p.o. 2 hr prior to each Von Frey test
Procedure: The aim of the study is to investigate the effect of a single intraplantar treatment with Nanoparticles from Example 3 at the doses of 117 g/L in 20 μL of injection volume, 58 g/L in 20 μL of injection volume, and 18 g/L in 10 μL of injection volume on the mechanical allodynia (as assessed using von Frey) that occurs following systemic administration of Streptozocin in the rat.
Experimental subjects: Sixty-six (66) adult male Sprague-Dawley rats (180-210 g) were used for this study. […]
Confirmation of hyperglycaemia: On Day 7 (D7) one drop of tail vein blood was obtained by a needle prick on the conscious rats. The blood glucose levels were measured in one drop of blood using an Exactive Vital (MictoTech Medical) blood glucose monitor. […]
as §1, with “allodynia:” for “allodynia evaluation:”, “of” for “of paw”, “threshold” for “threshold (PWT)”, “method (Dixon, 1980; Chaplan et al., 1994).” for “method.”
Von Frey readings are taken at baseline (pre-STZ), at D9 and at D11 post-STZ (neuropathic/allodynia baseline) and 2 hours post dose on D14. Von-Frey readings are repeated twice per week up to 3 weeks post-STZ (1 week post nanoparticles dosing). […]

[3] = tested on: oxaliplatin-induced mechanical allodynia; assay: Example 6: mechanical allodynia (von Frey PWT) in oxaliplatin CIPN model, dose effect, left (treated) vs right (vehicle) paw; conditions: Pregabalin 30 mg/kg p.o. each test day; both left and right paws
Source text: Animals were allowed to recover from transportation for at least one week before commencing experiments.
Data is presented as mean±SEM.

Compound: CC(C)C[C@H](CN)CC(=O)O [Pregabalin]
- PWT, allodynic response (positive control) [1]: rescued the allodynic response and recovered the PWT to the healthy baseline levels
- PWT levels compared to “STZ/Vehicle” group [2]: significantly different from the “STZ/Vehicle” group on all days tested
- PWT levels compared to ‘Vehicle/Vehicle’ group (not neuropathic) [3]: not significantly different from the ‘Vehicle/Vehicle’ group (not neuropathic) on any of the test days
